ChEMBL document CHEMBL1128829, “Synthesis and pharmacological activities of a novel tripeptide mimetic dopamine prodrug” (Bioorg Med Chem Lett, 1995)
Where a SMILES comes first, the peptide text is derived from it.

Assays:
[1] = system: Rattus norvegicus; assay: Reduction of (+)-methamphetamine-induced rotational counts on unilateral-lesion rats at a dose of 9.60 mg/Kg after 2 h; assay type: functional
[2] = species on record: Rattus norvegicus; assay: Percent recovery after 90 min of incubation in a rat intestinal mucosa suspension at 37 degree Centigrade; assay type: functional, organism-based
[3] = Net water uptake by a carrier mediated transport (%cm) mechanism; assay type: ADME; settings: buffer
[4] = species on record: Rattus norvegicus; assay: Dimensionless membrane permeability (Pm) from in situ single-pass rat jejunal perfusion at a concentration of 0.1 mM; assay type: functional, organism-based
[5] = system: Rattus norvegicus; assay: Reduction of (+)-methamphetamine-induced rotational counts on unilateral-lesion rats at a dose of 9.60 mg/Kg after 1 h; assay type: functional
[6] = species on record: Rattus norvegicus; assay: Percent recovery after 2 min of incubation in a rat intestinal mucosa suspension at 37 degree Centigrade; assay type: functional, organism-based
[7] = Percent of oral bioavailability up to 1000 mg/day; assay type: ADME, organism-based; settings: eutheria, in vivo
[8] = system: Rattus norvegicus; assay: Reduction of (+)-methamphetamine-induced rotational counts on unilateral-lesion rats at a dose of 4.20 mg/Kg after 1 h; assay type: functional

Activity [3]	bioavailability [7]	SMILES	Counts of rotation [1]	Recovery [2]	Permeability [4]	Counts of rotation [5]	Recovery [6]	Counts of rotation [8]
1.64%	–	N[C@@H](C(=O)N1CCC[C@H]1C(=O)N[C@H](Cc1ccc(O)c(O)c1)C(=O)O)c1ccc(O)cc1	247 turns hr-1	95%	1.53	223 turns hr-1	–	–
–	–	NCC(=O)N[C@@H](Cc1ccccc1)C(=O)O (H-Gly-Phe-OH)	–	–	–	–	19%	–
0.03%	33%	N[C@@H](Cc1ccc(O)c(O)c1)C(=O)O [LEVODOPA]	–	–	5.38	–	–	287 turns hr-1
